# Where two headings read alike, the source gives them in different places.
# Experiments:
# Experiment in all cases: Postemergence foliar-applied, direct seeded rice, greenhouse: visual weed control
# Type in all cases: in vivo
# [1] = system: Echinochloa colona (L.) Link (ECHCO)
# Excerpt: (§1) Seeds or nutlets of the desired test plant species were planted in a soil matrix prepared by mixing a loam or sandy loam soil (e.g., 28.6 percent silt, 18.8 percent clay, and 52.6 percent sand, with a pH of about 5.8 and an organic matter content of about 1.8 percent) and calcareous grit in an 80 to 20 ratio. The soil matrix was contained in plastic pots with a volume of 1 quart and a surface area of 83.6 cm^2. When required to ensure good germination and healthy plants, a fungicide treatment and/or other chemical or physical treatment was applied. The plants were grown for 8-22 days in a greenhouse with an approximate 14 h photoperiod which was maintained at about 29° C. during the day and 26° C. during the night. Nutrients (Peters Excel® 15-5-15 5-Ca 2-Mg and iron chelate) were applied in the irrigation solution as needed and water was added on a regular basis. Supplemental lighting was provided with overhead metal halide 1000-Watt lamps as necessary. The plants were employed for testing when they reached the first through fourth true leaf stage.
# (§2) Treatments consisted of the acid or esters of 4-amino-3-chloro-5-fluoro-6-(4-chloro-2-fluoro-3-methoxy-phenyl)pyridine-2-carboxylic acid (Compound A), each formulated as an SC (suspension concentrate), and various herbicidal components alone and in combination. Forms of compound A were applied on an acid equivalent basis.
# (§3) Treatment requirements were calculated based upon the rates being tested, the concentration of active ingredient or acid equivalent in the formulation, and a 12 mL application volume at a rate of 187 L/ha.
# (§4) For treatments comprised of formulated compounds, measured amounts of compounds were placed individually in 25 mL glass vials and diluted in a volume of 1.25% (v/v) Agri-Dex® crop oil concentrated to obtain 12× stock solutions. […] Application solutions were prepared by adding an appropriate amount of each stock solution (e.g., 1 mL) and diluted to the appropriate final concentrations with the addition of 10 mL of an aqueous mixture of 1.25% (v/v) crop oil concentrate so that the final spray solutions contained 1.25+/−0.05% (v/v) crop oil concentrate.
# (§5) As required, additional water and/or 97:3 v/v acetone/DMSO was added to individual application solutions so that the final acetone and DMSO concentrations of the application solutions being compared were 8.1% and 0.25%, respectively.
# (§6) All stock solutions and applications solutions were visually inspected for compound compatibility prior to application. Spray solutions were applied to the plant material with an overhead Mandel track sprayer equipped with a 8002E nozzles calibrated to deliver 187 L/ha over an application area of 0.503 m^2 at a spray height of 18 to 20 inches (46 to 50 cm) above average plant canopy height. Control plants were sprayed in the same manner with the solvent blank.
# (§7) The treated plants and control plants were placed in a greenhouse as described above and watered by sub-irrigation to prevent wash-off of the test compounds. After approximately 3 weeks, the condition of the test plants as compared with that of the untreated plants was determined visually and scored on a scale of 0 to 100 percent where 0 corresponds to no injury or growth inhibition and 100 corresponds to complete kill.
# (§8) Colby's equation was used to determine the herbicidal effects expected from the mixtures (Colby, S. R. 1967. Calculation of the synergistic and antagonistic response of herbicide combinations. Weeds 15:20-22.).
# (§9) The following equation was used to calculate the expected activity of mixtures containing two active ingredients, A and B: Expected=A+B−(A×B/100)
# [2] = system: Digitaria sanguinalis (L.) Scop. (DIGSA); conditions: 19 DAA
# Excerpt: as §1, §2, §3, §4, §5, §6, §7, §8, §9
# [3] = system: Brachiaria platyphylla (Griseb.) Nash (BRAPP); conditions: 21 DAA
# Excerpt: as §1, §2, §3, §4, §5, §6, §7, §8, §9
# [4] = system: Echinochloa crusgalli (L.) Beauv. (ECHCG)
# Experimental: as §1, with “When required to ensure good germination and healthy plants, a fungicide treatment and/or other chemical or physical treatment was applied.” left out
# (§10) Forms of compound A were applied on an acid equivalent basis.
# as §4, §5, §6, §7, §8, §9
# [5] = system: Ipomoea hederacea Jacq. (IPOHE); conditions: post-emergence, read-out: Visual Weed Control (%) Obs
# Experimental: as §1, with “When required to ensure good germination and healthy plants, a fungicide treatment and/or other chemical or physical treatment was applied.” left out
# as §10, §4, §5, §6, §7, §8, §9
structure (smiles),measurement,setting,value
"COc1c(Cl)ccc(-c2nc(C(=O)O)c(Cl)c(N)c2F)c1F [Compound A Acid, 4-amino-3-chloro-6-(4-chloro-2-fluoro-3-methoxyphenyl)-5-fluoropyridine-2-carboxylic acid]",Visual Weed Control (%) Obs,"[1]; 21 DAA, 4.38 g ae/ha",60%
same,Visual Weed Control (%) Obs,"[1]; 21 DAA, 8.75 g ae/ha",90%
same,Visual Weed Control (%) Obs,[2]; 4.38 g ae/ha,30%
same,Visual Weed Control (%) Obs,[3]; 8.75 g ae/ha,60%
same,Visual Weed Control (%) Obs,"[4]; 19 DAA, 4.38 g ae/ha",60%
same,pest or weed control at 4.38 g/ha,"[5]; 456 h, 19 DAA, 4.38 g ae/ha",0%
same,pest or weed control at 8.75 g/ha,"[5]; 456 h, 19 DAA, 8.75 g ae/ha",10%
same,pest or weed control at 35 g/ha,"[5]; 504 h, 21 DAA, 35 g ae/ha",45%
same,pest or weed control at 8 g/ha,"[5]; 528 h, 22 DAA, 8 g ae/ha",25%
same,pest or weed control at 16 g/ha,"[5]; 528 h, 22 DAA, 16 g ae/ha",35%
same,pest or weed control at 32 g/ha,"[5]; 528 h, 22 DAA, 32 g ae/ha",40%
"COc1c(Cl)ccc(-c2nc(C(=O)OCc3ccccc3)c(Cl)c(N)c2F)c1F [Compound A Benzyl Ester, benzyl ester of 4-amino-3-chloro-5-fluoro-6-(4-chloro-2-fluoro-3-methoxy-phenyl)pyridine-2-carboxylic acid]",Visual Weed Control (%) Obs,"[1]; 19 DAA, 4.38 g ae/ha",65%
same,Visual Weed Control (%) Obs,"[1]; 19 DAA, 8.75 g ae/ha",90%
same,Visual Weed Control (%) Obs,[2]; 4.38 g ae/ha,35%
same,Visual Weed Control (%) Obs,[2]; 8.75 g ae/ha,50%
same,Visual Weed Control (%) Obs,[3]; 4.38 g ae/ha,70%
same,Visual Weed Control (%) Obs,"[4]; 19 DAA, 4.38 g ae/ha",55%
same,Visual Weed Control (%) Obs,"[4]; 19 DAA, 8.75 g ae/ha",85%
same,Visual Weed Control (%) Obs,"[4]; 20 DAA, 4.38 g ae/ha",40%
same,Visual Weed Control (%) Obs,"[4]; 20 DAA, 8.75 g ae/ha",70%
same,pest or weed control at 4.38 g/ha,[5]; 456 h,0%
same,pest or weed control at 8.75 g/ha,[5]; 456 h,0%
same,pest or weed control at 8 g/ha,[5]; 480 h,20%
same,pest or weed control at 8.75 g/ha,[5]; 480 h,10%
same,pest or weed control at 16 g/ha,[5]; 480 h,40%
same,pest or weed control at 17.5 g/ha,[5]; 480 h,25%
same,pest or weed control at 4.38 g/ha,[5]; 504 h,10%
same,pest or weed control at 8.75 g/ha,[5]; 504 h,10%
same,pest or weed control at 17.5 g/ha,[5]; 504 h,25%
same,pest or weed control at 8 g/ha,[5]; 528 h,10%
same,pest or weed control at 16 g/ha,[5]; 528 h,10%
same,pest or weed control at 32 g/ha,[5]; 528 h,35%
"CSC(=O)c1c(C(F)F)nc(C(F)(F)F)c(C(=O)SC)c1CC(C)C [Dithiopyr, S,S′-dimethyl-2-(difluoromethyl)-4-(2-methylpropyl)-6-(trifluoromethyl)-3,5-pyridinedicarbothioate]",Visual Weed Control (%) Obs,"[1]; 21 DAA, 35 g ai/ha",0%
same,Visual Weed Control (%) Obs,"[1]; 21 DAA, 70 g ai/ha",0%
same,Visual Weed Control (%) Obs,"[1]; 21 DAA, 140 g ai/ha",0%
same,Visual Weed Control (%) Obs,[3]; 35 g ai/ha,0%
same,Visual Weed Control (%) Obs,[3]; 70 g ai/ha,0%
same,Visual Weed Control (%) Obs,[3]; 140 g ai/ha,0%
same,pest or weed control at 35 g/ha,"[5]; 504 h, 21 DAA, 35 g ai/ha",10%
"CCC(CC)Nc1c([N+](=O)[O-])cc(C)c(C)c1[N+](=O)[O-] [Pendimethalin, N-(1-ethylpropyl)-3,4-dimethyl-2,6-dinitrobenzenamine, reference compound]",Visual Weed Control (%) Obs,"[1]; 19 DAA, 140 g ai/ha",0%
same,Visual Weed Control (%) Obs,"[1]; 19 DAA, 280 g ai/ha",0%
same,Visual Weed Control (%) Obs,"[1]; 19 DAA, 560 g ai/ha",0%
same,Visual Weed Control (%) Obs,[2]; 140 g ai/ha,0%
same,Visual Weed Control (%) Obs,[2]; 280 g ai/ha,0%
same,Visual Weed Control (%) Obs,"[4]; 19 DAA, 140 g ai/ha",0%
same,Visual Weed Control (%) Obs,"[4]; 19 DAA, 280 g ai/ha",0%
same,Visual Weed Control (%) Obs,"[4]; 19 DAA, 560 g ai/ha",10%
same,Visual Weed Control (%) Obs,"[4]; 21 DAA, 1120 g ai/ha",18%
same,pest or weed control at 140 g/ha,"[5]; 456 h, 19 DAA, 140 g ai/ha",0%
same,pest or weed control at 280 g/ha,"[5]; 456 h, 19 DAA, 280 g ai/ha",0%
same,pest or weed control at 560 g/ha,"[5]; 456 h, 19 DAA, 560 g ai/ha",0%
same,pest or weed control at 1120 g/ha,"[5]; 504 h, 21 DAA, 1120 g ai/ha",13%
